± gives the standard deviation.
assay: chemical recovery into PDMS from spiked human plasma; higher = better extraction; details: pooled human plasma; extraction method: PES with PDMS; equilibration time (d): 3
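Throughout, for chemical recovery by SPE of plasma after PDMS sampling: over 400 spiked chemicals quantified by LC-HRMS or GC-HRMS via internal standard calibration, recovery relative to spike mix added to unspiked plasma extract to correct matrix effects.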

Row | Structure (SMILES) | chemical recovery into PDMS [%]
1 | COc1ccc(C(=O)c2ccccc2)c(O)c1 [Benzophenone-3] | 38.2 ± 2.1
2 | N#Cc1nn(-c2c(Cl)cc(C(F)(F)F)cc2Cl)c(N)c1SC(F)(F)F [Fipronil sulfide] | 25.1 ± 1.1
3 | CNC(=O)Oc1cccc2c1OC(C)(C)O2 [Bendiocarb] | 20.4 ± 0.2
4 | c1ccc(-c2cccc3ccccc23)cc1 [1-Phenylnaphthalene] | 70.6 ± 5.2
5 | NC(=O)/N=C1\SCCN1Cc1ccc(Cl)nc1 [Thiacloprid amide] | 4 ± 1.4
6 | c1ccc2c(c1)-c1cccc3c1c-2cc1ccccc13 [Benzo(b)fluoranthene] | 93.1 ± 4.8
7 | CCNS(=O)(=O)c1ccccc1C [N-Ethyl-o-toluenesulfonamide] | 23.2 ± 2.6
8 | CN1C(=O)C(O)N=C(c2ccccc2)c2cc(Cl)ccc21 (stereo not drawn) [Temazepam] | 16.5 ± 0.71
9 | NC(=O)c1ccc(N)cc1 [4-Aminobenzamide] | 0.844 ± 0.17
10 | CC(C)N(C(=O)CCl)c1ccccc1 [Propachlor] | 34.7 ± 3.9

same assay, conditions: pooled human plasma; extraction method: PES with PDMS; equilibration time (d): 6

Row | Structure (SMILES) | chemical recovery into PDMS [%]
11 | CC(=O)[C@@]1(O)CC[C@H]2[C@@H]3C[C@H](C)C4=CC(=O)CC[C@]4(C)[C@H]3CC[C@@]21C [Medroxyprogesterone] | 44.5 ± 6.2
12 | CC1(C)O[C@@H]2C[C@H]3[C@@H]4C[C@H](F)C5=CC(=O)C=C[C@]5(C)[C@H]4[C@@H](O)C[C@]3(C)[C@]2(C(=O)CO)O1 [Flunisolide] | 11.7 ± 2
13 | S=C1NCCN1 [Ethylenethiourea] | 0.013 ± 0.022
14 | CC1CN(C2CCCCCCCCCCC2)CC(C)O1 (stereo not drawn) [Dodemorph] | 1.41 ± 0.46
15 | CC(C)C(=O)Nc1ccc([N+](=O)[O-])c(C(F)(F)F)c1 [Flutamide] | 36.7 ± 1.6
16 | COCCCC/C(=N\OCCN)c1ccc(C(F)(F)F)cc1 [Fluvoxamine] | 2.83 ± 1.3
17 | O=[N+]([O-])c1cc[n+]([O-])c2ccccc12 [4-Nitroquinoline-1-oxide] | 17 ± 0.8
18 | Brc1cc(Br)c(Oc2cc(Br)c(Br)cc2Br)cc1Br [BDE153] | 71.7 ± 9.9
19 | ClC(Cl)=C(c1ccc(Cl)cc1)c1ccc(Cl)cc1 [4,4-DDE] | 93 ± 13
20 | CCNc1nc(NC(C)C)nc(SC)n1 [Ametryn] | 23.9 ± 3.2
21 | C#CC(C)(C)NC(=O)c1cc(Cl)cc(Cl)c1 [Propyzamide] | 39.4 ± 0.71
22 | CN(C)NC(=O)CCC(=O)O [Daminozide] | 0.0133 ± 0.023
23 | COc1ccc(C(=O)c2ccccc2)c(O)c1 [Benzophenone-3] | 38.6 ± 4.5
24 | N#Cc1nn(-c2c(Cl)cc(C(F)(F)F)cc2Cl)c(N)c1SC(F)(F)F [Fipronil sulfide] | 24.4 ± 0.83
25 | CNC(=O)Oc1cccc2c1OC(C)(C)O2 [Bendiocarb] | 21.4 ± 0.87
26 | c1ccc(-c2cccc3ccccc23)cc1 [1-Phenylnaphthalene] | 78.1 ± 11
27 | NC(=O)/N=C1\SCCN1Cc1ccc(Cl)nc1 [Thiacloprid amide] | 4.83 ± 0.88
28 | c1ccc2c(c1)-c1cccc3c1c-2cc1ccccc13 [Benzo(b)fluoranthene] | 93.6 ± 18
29 | CCNS(=O)(=O)c1ccccc1C [N-Ethyl-o-toluenesulfonamide] | 26.3 ± 2.6
30 | CN1C(=O)C(O)N=C(c2ccccc2)c2cc(Cl)ccc21 (stereo not drawn) [Temazepam] | 17.6 ± 1.9
31 | NC(=O)c1ccc(N)cc1 [4-Aminobenzamide] | 0.572 ± 0.1
32 | CC(C)N(C(=O)CCl)c1ccccc1 [Propachlor] | 35.3 ± 2.5

assay: chemical recovery by SPE of plasma after PDMS sampling; higher = better extraction; details: pooled human plasma; extraction method: HLB SPE of plasma after PES; equilibration time (d): 1

Row | Structure (SMILES) | chemical recovery by SPE of plasma [%]
33 | CC1(C)O[C@@H]2C[C@H]3[C@@H]4C[C@H](F)C5=CC(=O)C=C[C@]5(C)[C@H]4[C@@H](O)C[C@]3(C)[C@]2(C(=O)CO)O1 [Flunisolide] | 39.7 ± 3.9
34 | CC1CN(C2CCCCCCCCCCC2)CC(C)O1 (stereo not drawn) [Dodemorph] | 0.166 ± 0.13
35 | CCCCCCCCCCCCCCN(C)C [N,N-Dimethyltetradecylamine] | 0.241 ± 0.23
36 | CC(C)C(=O)Nc1ccc([N+](=O)[O-])c(C(F)(F)F)c1 [Flutamide] | 21.7 ± 2.7
37 | COCCCC/C(=N\OCCN)c1ccc(C(F)(F)F)cc1 [Fluvoxamine] | 1.45 ± 0.092
38 | O=[N+]([O-])c1cc[n+]([O-])c2ccccc12 [4-Nitroquinoline-1-oxide] | 15.1 ± 2.7
39 | Cc1cc(Cl)ccc1OCC(=O)O [MCPA] | 56.1 ± 11
40 | Brc1cc(Br)c(Oc2cc(Br)c(Br)cc2Br)cc1Br [BDE153] | 2.71 ± 2.5
41 | ClC(Cl)=C(c1ccc(Cl)cc1)c1ccc(Cl)cc1 [4,4-DDE] | 0.964 ± 1
42 | O=S(=O)(O)c1ccc2[nH]c(-c3ccccc3)nc2c1 [Phenylbenzimidazole sulfonic acid] | 42.2 ± 5.2
43 | CCNc1nc(NC(C)C)nc(SC)n1 [Ametryn] | 24.3 ± 4.5
44 | C#CC(C)(C)NC(=O)c1cc(Cl)cc(Cl)c1 [Propyzamide] | 5.12 ± 0.61
45 | CN(C)NC(=O)CCC(=O)O [Daminozide] | 1.49 ± 2.5
46 | COc1ccc(C(=O)c2ccccc2)c(O)c1 [Benzophenone-3] | 1.5 ± 0.48
47 | N#Cc1nn(-c2c(Cl)cc(C(F)(F)F)cc2Cl)c(N)c1SC(F)(F)F [Fipronil sulfide] | 21.2 ± 6.2
48 | CNC(=O)Oc1cccc2c1OC(C)(C)O2 [Bendiocarb] | 20.4 ± 0.99
49 | NC(=O)/N=C1\SCCN1Cc1ccc(Cl)nc1 [Thiacloprid amide] | 51.1 ± 5.3
50 | CCNS(=O)(=O)c1ccccc1C [N-Ethyl-o-toluenesulfonamide] | 19.8 ± 2.8
51 | CN1C(=O)C(O)N=C(c2ccccc2)c2cc(Cl)ccc21 (stereo not drawn) [Temazepam] | 30.4 ± 4.8
52 | CC(C)N(C(=O)CCl)c1ccccc1 [Propachlor] | 1.58 ± 0.41

same assay, conditions: pooled human plasma; extraction method: HLB SPE of plasma after PES; equilibration time (d): 3

Row | Structure (SMILES) | chemical recovery by SPE of plasma [%]
53 | CC1(C)O[C@@H]2C[C@H]3[C@@H]4C[C@H](F)C5=CC(=O)C=C[C@]5(C)[C@H]4[C@@H](O)C[C@]3(C)[C@]2(C(=O)CO)O1 [Flunisolide] | 37.1 ± 2.1
54 | S=C1NCCN1 [Ethylenethiourea] | 0.0882 ± 0.15
55 | CC1CN(C2CCCCCCCCCCC2)CC(C)O1 (stereo not drawn) [Dodemorph] | 0.11 ± 0.031
56 | CCCCCCCCCCCCCCN(C)C [N,N-Dimethyltetradecylamine] | 0.0666 ± 0.015
57 | CC(C)C(=O)Nc1ccc([N+](=O)[O-])c(C(F)(F)F)c1 [Flutamide] | 22.2 ± 0.83
58 | COCCCC/C(=N\OCCN)c1ccc(C(F)(F)F)cc1 [Fluvoxamine] | 1.56 ± 0.35
59 | O=[N+]([O-])c1cc[n+]([O-])c2ccccc12 [4-Nitroquinoline-1-oxide] | 18.4 ± 2.5
60 | Cc1cc(Cl)ccc1OCC(=O)O [MCPA] | 64.2 ± 5.6
61 | Brc1cc(Br)c(Oc2cc(Br)c(Br)cc2Br)cc1Br [BDE153] | 2.62 ± 0.49
62 | ClC(Cl)=C(c1ccc(Cl)cc1)c1ccc(Cl)cc1 [4,4-DDE] | 0.268 ± 0.47
63 | O=S(=O)(O)c1ccc2[nH]c(-c3ccccc3)nc2c1 [Phenylbenzimidazole sulfonic acid] | 49 ± 1.8
64 | CCNc1nc(NC(C)C)nc(SC)n1 [Ametryn] | 9.36 ± 2
65 | C#CC(C)(C)NC(=O)c1cc(Cl)cc(Cl)c1 [Propyzamide] | 7.16 ± 0.99
66 | CN(C)NC(=O)CCC(=O)O [Daminozide] | 0.206 ± 0.36
67 | COc1ccc(C(=O)c2ccccc2)c(O)c1 [Benzophenone-3] | 1.88 ± 0.31
68 | N#Cc1nn(-c2c(Cl)cc(C(F)(F)F)cc2Cl)c(N)c1SC(F)(F)F [Fipronil sulfide] | 19.9 ± 0.92
69 | CNC(=O)Oc1cccc2c1OC(C)(C)O2 [Bendiocarb] | 26.5 ± 2.1
70 | c1ccc(-c2cccc3ccccc23)cc1 [1-Phenylnaphthalene] | 2.49 ± 2.2
71 | NC(=O)/N=C1\SCCN1Cc1ccc(Cl)nc1 [Thiacloprid amide] | 53.4 ± 4.1
72 | c1ccc2c(c1)-c1cccc3c1c-2cc1ccccc13 [Benzo(b)fluoranthene] | 3.78 ± 9.3
73 | CCNS(=O)(=O)c1ccccc1C [N-Ethyl-o-toluenesulfonamide] | 25.7 ± 2.5
74 | CN1C(=O)C(O)N=C(c2ccccc2)c2cc(Cl)ccc21 (stereo not drawn) [Temazepam] | 27.9 ± 3.1
75 | NC(=O)c1ccc(N)cc1 [4-Aminobenzamide] | 5.92 ± 1.7
76 | CC(C)N(C(=O)CCl)c1ccccc1 [Propachlor] | 2.49 ± 0.44

same assay, conditions: pooled human plasma; extraction method: HLB SPE of plasma after PES; equilibration time (d): 6

Row | Structure (SMILES) | chemical recovery by SPE of plasma [%]
77 | CC(=O)[C@@]1(O)CC[C@H]2[C@@H]3C[C@H](C)C4=CC(=O)CC[C@]4(C)[C@H]3CC[C@@]21C [Medroxyprogesterone] | 1.02 ± 1.8
78 | CC1(C)O[C@@H]2C[C@H]3[C@@H]4C[C@H](F)C5=CC(=O)C=C[C@]5(C)[C@H]4[C@@H](O)C[C@]3(C)[C@]2(C(=O)CO)O1 [Flunisolide] | 27.6 ± 2.4
79 | S=C1NCCN1 [Ethylenethiourea] | 0.15 ± 0.26
80 | CC1CN(C2CCCCCCCCCCC2)CC(C)O1 (stereo not drawn) [Dodemorph] | 0.044 ± 0.0048
81 | CCCCCCCCCCCCCCN(C)C [N,N-Dimethyltetradecylamine] | 0.0207 ± 0.085
82 | CC(C)C(=O)Nc1ccc([N+](=O)[O-])c(C(F)(F)F)c1 [Flutamide] | 15.5 ± 1.1
83 | COCCCC/C(=N\OCCN)c1ccc(C(F)(F)F)cc1 [Fluvoxamine] | 0.901 ± 0.06
84 | O=[N+]([O-])c1cc[n+]([O-])c2ccccc12 [4-Nitroquinoline-1-oxide] | 13.5 ± 1.6
85 | Cc1cc(Cl)ccc1OCC(=O)O [MCPA] | 58.8 ± 3.1
86 | Brc1cc(Br)c(Oc2cc(Br)c(Br)cc2Br)cc1Br [BDE153] | 1 ± 0.88
87 | O=S(=O)(O)c1ccc2[nH]c(-c3ccccc3)nc2c1 [Phenylbenzimidazole sulfonic acid] | 45.8 ± 8.4
88 | CCNc1nc(NC(C)C)nc(SC)n1 [Ametryn] | 4.74 ± 0.84
89 | C#CC(C)(C)NC(=O)c1cc(Cl)cc(Cl)c1 [Propyzamide] | 4.71 ± 0.68
90 | CN(C)NC(=O)CCC(=O)O [Daminozide] | 0.536 ± 0.28
91 | COc1ccc(C(=O)c2ccccc2)c(O)c1 [Benzophenone-3] | 1.41 ± 0.17
92 | N#Cc1nn(-c2c(Cl)cc(C(F)(F)F)cc2Cl)c(N)c1SC(F)(F)F [Fipronil sulfide] | 15.3 ± 3
93 | CNC(=O)Oc1cccc2c1OC(C)(C)O2 [Bendiocarb] | 21.6 ± 1.7
94 | NC(=O)/N=C1\SCCN1Cc1ccc(Cl)nc1 [Thiacloprid amide] | 47 ± 2.8
95 | CCNS(=O)(=O)c1ccccc1C [N-Ethyl-o-toluenesulfonamide] | 18.8 ± 3
96 | CN1C(=O)C(O)N=C(c2ccccc2)c2cc(Cl)ccc21 (stereo not drawn) [Temazepam] | 22 ± 2.1
97 | NC(=O)c1ccc(N)cc1 [4-Aminobenzamide] | 10 ± 3.9
98 | CC(C)N(C(=O)CCl)c1ccccc1 [Propachlor] | 1.58 ± 0.092

— the supplement of paper PMC10702517
